Laboratory results taken from patent publication US8946212B2, “Annelated N-heterocyclic sulfonamides with oxadiazolone headgroup, processes for their preparation and their use as pharmaceuticals” (Sanofi-Aventis, priority 2008, dated 2015).
Read-outs that look alike come from different tables or passages of the source.

What was measured:
[1] = two weeks clinical trials in healthy volunteers; cited from earlier work
[2] = rhesus monkeys; cited from earlier work
[3] = cynomolgus monkeys; cited from earlier work
[4] = obese, insulin resistant rhesus monkeys, cited from earlier work
[5] = target: T1, human PPARalpha (Homo sapiens, UniProt Q07869); test: Cellular PPARalpha assay (HEK reporter cell line, luciferase); type: cell-based; conditions: PPARalpha reporter cell line (HEK, GR-GAL4-humanPPARalpha-LBD)
T1 construct: human PPARalpha receptor (amino acids S167-Y468); expressed in transfected cells; host or cells: HEK (human embryo kidney) cells, stably transfected; plasmid pcDNA3
T1 sequence (Q07869 167-468): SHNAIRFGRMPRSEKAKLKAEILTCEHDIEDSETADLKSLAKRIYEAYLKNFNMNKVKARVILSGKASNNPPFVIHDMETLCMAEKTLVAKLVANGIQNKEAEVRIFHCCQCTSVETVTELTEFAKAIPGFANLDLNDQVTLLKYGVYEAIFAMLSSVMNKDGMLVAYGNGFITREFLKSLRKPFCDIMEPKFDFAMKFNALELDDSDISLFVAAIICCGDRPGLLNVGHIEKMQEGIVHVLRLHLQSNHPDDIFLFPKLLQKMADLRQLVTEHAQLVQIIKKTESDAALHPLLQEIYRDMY
Procedure: The potency of substances which bind to human PPARalpha and activate it in an agonistic manner is analyzed using a stably transfected HEK cell line (HEK=human embryo kidney) which is referred to here as PPARalpha reporter cell line. It contains two genetic elements, a luciferase reporter element (pdeltaM-GAL4-Luc-Zeo) and a PPARalpha fusion protein (GR-GAL4-humanPPARalpha-LBD) which mediates expression of the luciferase reporter element depending on a PPARalpha ligand. The stably and constitutively expressed fusion protein GR-GAL4-humanPPARalpha-LBD binds in the cell nucleus of the PPARalpha reporter cell line via the GAL4 protein portion to the GAL4 DNA binding motifs 5′-upstream of the luciferase reporter element which is stably integrated in the genome of the cell line. There is only weak expression of the luciferase reporter gene in the absence of a PPARalpha ligand if fatty acid-depleted fetal calf serum (cs-FCS) is used in the assay. PPARalpha ligands bind and activate the PPARalpha fusion protein and thereby stimulate the expression of the luciferase reporter gene. The luciferase which is formed can be detected by means of chemiluminescence via an appropriate substrate.
The PPARalpha reporter cell line was prepared in two stages. […]
The activity of PPARalpha agonists is determined in a 3-day assay which is described below: […]

[6] = target: T2, human PPARdelta (Homo sapiens, UniProt Q03181); test: Cellular PPARdelta assay (HEK reporter cell line, luciferase); type: cell-based; conditions: PPARdelta reporter cell line (HEK, GR-GAL4-humanPPARdelta-LBD)
T2 construct: human PPARdelta receptor (amino acids S139-Y441); expressed in transfected cells; host or cells: HEK (human embryo kidney) cells, stably transfected; plasmid pcDNA3
T2 sequence (Q03181 139-441): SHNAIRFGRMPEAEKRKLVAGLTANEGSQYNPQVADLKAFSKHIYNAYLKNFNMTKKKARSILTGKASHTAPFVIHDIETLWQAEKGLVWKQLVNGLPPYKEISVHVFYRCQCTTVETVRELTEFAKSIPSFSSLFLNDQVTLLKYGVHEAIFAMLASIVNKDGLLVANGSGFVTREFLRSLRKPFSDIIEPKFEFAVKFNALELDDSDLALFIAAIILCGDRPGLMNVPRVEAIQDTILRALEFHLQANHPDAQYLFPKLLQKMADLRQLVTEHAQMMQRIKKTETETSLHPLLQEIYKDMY
Procedure: The potency of substances which bind to human PPARdelta and activate it in an agonistic manner is analyzed using a stably transfected HEK cell line (HEK=human embryo kidney) which is referred to here as PPARdelta reporter cell line. In analogy to the assay described for PPARalpha, the PPARdelta reporter cell line also contains two genetic elements, a luciferase reporter element (pdeltaM-GAL4-Luc-Zeo) and a PPARdelta fusion protein (GR-GAL4-humanPPARdelta-LBD) which mediates expression of the luciferase reporter element depending on a PPARdelta ligand. The stably and constitutively expressed fusion protein GR-GAL4-humanPPARdelta-LBD binds in the cell nucleus of the PPARdelta reporter cell line via the GAL4 protein portion to the GAL4 DNA binding motifs 5″-upstream of the luciferase reporter element which is stably integrated in the genome of the cell line. There is only little expression of the luciferase reporter gene in the absence of a PPARdelta ligand if fatty acid-depleted fetal calf serum (cs-FCS) is used in the assay. PPARdelta ligands bind and activate the PPARdelta fusion protein and thereby stimulate expression of the luciferase reporter gene. The luciferase which is formed can be detected by means of chemiluminescence via an appropriate substrate.
The production of the stable PPARdelta reporter cell line is based on a stable HEK-cell clone which was stably transfected with a luciferase reporter element. This step was already described above in the section “construction of the PPARalpha reporter cell line”. In a second step, the PPARdelta fusion protein (GR-GAL4-humanPPARdelta-LBD was stably introduced into this cell clone. For this purpose, the cDNA coding for the N-terminal 76 amino acids of the glucocorticoid receptor (Accession # P4150) was linked to the cDNA section coding for amino acids 1-147 of the yeast transcription factor GAL4 (Accession #P04386). The cDNA of the ligand-binding domain of the human PPARdelta receptor (amino acids S139-Y441; Accession # L07592) was cloned in at the 3′-end of this GR-GAL4 construct. The fusion construct prepared in this way (GR-GAL4-humanPPARdelta-LBD) was recloned into the plasmid pcDNA3 (Invitrogen) in order to enable constitutive expression by the cytomegalovirus promoter. This plasmid was linearized with a restriction endonuclease and stably transfected into the previously described cell clone containing the luciferase reporter element. The resulting PPARdelta reporter cell line which contains a luciferase reporter element and constitutively expresses the PPARdelta fusion protein (GR-GAL4-human PPARdelta-LBD) was isolated by selection with zeocin (0.5 mg/ml) and G418 (0.5 mg/ml).
The activity of PPARdelta agonists is determined in a 3-day assay in exact analogy to the procedure already described for the PPARalpha reporter cell line except that the PPARdelta reporter cell line and a specific PPARdelta agonist was used as a standard to control test efficacy.

[7] = diabetic animal model; cited from earlier work

Question: For CCCc1c(OCCCSc2nnc(SCC(=O)O)s2)ccc(C(C)=O)c1O [YM-16638], which plasma lipids [1] is on record?
Answer: acts in a similar manner

Question: And the plasma lipids [2]?
Answer: significantly lowers

Question: And the plasma lipids [3]?
Answer: significantly lowers

Question: With Cc1cc(SCc2sc(-c3ccc(C(F)(F)F)cc3)nc2C)ccc1OCC(=O)O [GW501516] as the compound, how does the insulin levels ([4]; plasma) read?
Answer: decreases

Question: What about the triglycerides ([4]; plasma) of the same compound?
Answer: decreases

Question: And the HDL-cholesterol [4]?
Answer: raises

Question: What about the “plasma LDL-cholesterol” value [4] of the same compound?
Answer: decreases

Question: What does the source list for O=c1[nH]c(-c2ccc(S(=O)(=O)N3CCCc4nc(-c5ccc(C(F)(F)F)cc5)ccc43)cc2Cl)no1 [Example 13, 3-{2-Chloro-4-[6-(4-trifluoromethyl-phenyl)-3,4-dihydro-2H-[1,5]naphthyridine-1-sulfonyl]-phenyl}-4H-[1,2,4]oxadiazol-5-one]?
Answer: EC50 [5]: 505 nM; EC50 [6]: 0.4 nM

Question: Which EC50 [6] does the source give for CC1(C)Cc2cc(-c3ccc(C(F)(F)F)cc3)ccc2N(c2ccc(-c3noc(=O)[nH]3)c(Cl)c2)C1 [Example 5, 3-{2-Chloro-4-[3,3-dimethyl-6-(4-trifluoromethyl-phenyl)-3,4-dihydro-2H-quinolin-1-yl]-phenyl}-4H-[1,2,4]oxadiazol-5-one] here?
Answer: 1.9 nM

Question: With “3-{4-[6-(4-Trifluoromethyl-phenyl)-3,4-dihydro-2H-quinolin-1-yl]-phenyl}-4H-[1,2,4]oxadiazol-5-one [Example 1]” as the compound, how does the EC50 [6] read?
Answer: 2.3 nM

Question: Which EC50 [6] does the source give for “3-{2-Chloro-4-[7-(4-trifluoromethyl-phenyl)-2,3-dihydro-pyrido[3,2-b][1,4]oxazin-4-yl]-phenyl}-4H-[1,2,4]oxadiazol-5-one [Example 8]” here?
Answer: 55 nM

Question: For “3-{2-Chloro-4-[4,4-dimethyl-6-(4-trifluoromethyl-phenyl)-3,4-dihydro-2H-quinolin-1-yl]-phenyl}-4H-[1,2,4]oxadiazol-5-one [Example 3]”, which EC50 [6] is on record?
Answer: 3.3 nM

Question: Which plasma cholesterol [7] does the source give for CCCc1c(OCCCOc2ccc(OCC(=O)O)cc2)ccc(C(C)=O)c1O [Example L-165041] here?
Answer: raises

Question: With O=c1[nH]c(-c2ccc(S(=O)(=O)N3CCNCc4cc(-c5ccc(C(F)(F)F)cc5)ccc43)cc2Cl)no1 [Example 12, 3-{2-Chloro-4-[7-(4-trifluoromethyl-phenyl)-2,3,4,5-tetrahydro-benzo[e][1,4]diazepine-1-sulfonyl]-phenyl}-4H-[1,2,4]oxadiazol-5-one] as the compound, how does the EC50 [6] read?
Answer: 530 nM
